In US4746349A, “Method and compositions for suppressing the nitrification of ammonium in plant growth medium” (American Cyanamid Company, priority 1986, dated 1988):
Where a name gives a salt, the structure may show the parent alone.

Columns and labels:
Nitrobacter spp. = test: Nitrite nitrogen in ammonium amended soil incubated at 25° C.; settings: soil 25° C., 200 ppm N
Method: Determination of nitrite nitrogen and nitrate nitrogen in soil prepared in Example 1 above, which is amended with 200 ppm of nitrogen as aqueous ammonium sulfate, […], is determined using the nitrite and nitrate analysis of the American Organization of Analytical Chemists (AOAC pp. 653-655).

Nitrosomonas spp. = test: Nitrification of ammonium in soil incubated at 25° C. (ammonium recovery, nitrate accumulation); settings: soil 25° C.; for Concentration of nitrate nitrogen / Recovery of Ammonium Nitrogen: 200 ppm N
Method: In these evaluations, one hundred grams (100 g) of oven dry, silt loam field soil with low residual nitrogen is added to a 6×12 cm screw-capped glass jar for each sampling date to provide an optimum environment for nitrification.
Two replicates of each treatment-sampling date are established. The soil is adjusted to 50% water saturation with an aqueous solution of ammonium sulfate at 200 ppm N and the chemical to be tested as a nitrification inhibitor at rates of from 0.10 to 0.50 ppm.
Incubation is at either 25° C. or 38° C. for 0, 1, 2, 4, 7, 9, 12, 16 or 20 weeks. Inorganic N is extracted by adding 2M KCl (10:1 v/w) and shaking for one hour, allowing settling for fifteen minutes. A 10 ml aliquot from the supernatant is assayed for ammonium, nitrite and nitrate by standard steam distillation methods (AOAC, pp. 653-655). Nitrapyrin (0.5 ppm) is used as a nitrification inhibitor for comparison. Benzyl alcohol, acetone, and a non-N amended soil are run as controls and as a check on mineralization.
Nitrification: Ammonium recovery and nitrate accumulation are indicative of nitrification, and data obtained with test compounds are reported in Tables I and II.

CC[C@@H](C(=O)[C@@H](C)[C@@H](O)[C@H](C)[C@@H]1O[C@@H]([C@@H](CC)C(=O)O)CC[C@@H]1C)[C@H]1O[C@]2(C=C[C@@H](O)[C@]3(CC[C@@](C)([C@H]4CC[C@](O)(CC)[C@H](C)O4)O3)O2)[C@H](C)C[C@@H]1C [Salinomycin monosodium salt, Salinomycin]
Concentration of nitrite nitrogen (Nitrobacter spp.; 0.10 ppm, week 0): 7 ppm
Concentration of nitrite nitrogen (Nitrobacter spp.; 0.10 ppm, week 1): 5 ppm
Concentration of nitrite nitrogen (Nitrobacter spp.; 0.10 ppm, week 2): 7 ppm
Concentration of nitrite nitrogen (Nitrobacter spp.; 0.10 ppm, week 4): 6 ppm
Concentration of nitrite nitrogen (Nitrobacter spp.; 0.10 ppm, week 7): -4 ppm
Concentration of nitrite nitrogen (Nitrobacter spp.; 0.10 ppm, week 9): 25 ppm
Concentration of nitrite nitrogen (Nitrobacter spp.; 0.10 ppm, week 12): 7 ppm
Concentration of nitrite nitrogen (Nitrobacter spp.; 0.10 ppm, week 16): 7 ppm
Concentration of nitrite nitrogen (Nitrobacter spp.; 0.10 ppm, week 20): 11 ppm
Concentration of nitrite nitrogen (Nitrobacter spp.; 0.25 ppm, week 0): 8 ppm
Concentration of nitrite nitrogen (Nitrobacter spp.; 0.25 ppm, week 1): 5 ppm
Concentration of nitrite nitrogen (Nitrobacter spp.; 0.25 ppm, week 2): 3 ppm
Concentration of nitrite nitrogen (Nitrobacter spp.; 0.25 ppm, week 4): 7 ppm
Concentration of nitrite nitrogen (Nitrobacter spp.; 0.25 ppm, week 7): -1 ppm
Concentration of nitrite nitrogen (Nitrobacter spp.; 0.25 ppm, week 9): 7 ppm
Concentration of nitrite nitrogen (Nitrobacter spp.; 0.25 ppm, week 12): 9 ppm
Concentration of nitrite nitrogen (Nitrobacter spp.; 0.25 ppm, week 16): 2 ppm
Concentration of nitrite nitrogen (Nitrobacter spp.; 0.25 ppm, week 20): 47 ppm
Concentration of nitrite nitrogen (Nitrobacter spp.; 0.50 ppm, week 0): 9 ppm
Concentration of nitrite nitrogen (Nitrobacter spp.; 0.50 ppm, week 1): 3 ppm
Concentration of nitrite nitrogen (Nitrobacter spp.; 0.50 ppm, week 2): 3 ppm
Concentration of nitrite nitrogen (Nitrobacter spp.; 0.50 ppm, week 4): 14 ppm
Concentration of nitrite nitrogen (Nitrobacter spp.; 0.50 ppm, week 7): 4 ppm
Concentration of nitrite nitrogen (Nitrobacter spp.; 0.50 ppm, week 9): -1 ppm
Concentration of nitrite nitrogen (Nitrobacter spp.; 0.50 ppm, week 12): 1 ppm
Concentration of nitrite nitrogen (Nitrobacter spp.; 0.50 ppm, week 16): 8 ppm
Concentration of nitrite nitrogen (Nitrobacter spp.; 0.50 ppm, week 20): 14 ppm
Concentration of nitrate nitrogen (Nitrosomonas spp.; 0.10 ppm, week 0): 18 PPM
Recovery of Ammonium Nitrogen (Nitrosomonas spp.; 0.10 ppm, week 0): 194 PPM
Concentration of nitrate nitrogen (Nitrosomonas spp.; 0.10 ppm, week 1): 20 PPM
Recovery of Ammonium Nitrogen (Nitrosomonas spp.; 0.10 ppm, week 1): 171 PPM
Concentration of nitrate nitrogen (Nitrosomonas spp.; 0.10 ppm, week 2): 20 PPM
Recovery of Ammonium Nitrogen (Nitrosomonas spp.; 0.10 ppm, week 2): 183 PPM
Concentration of nitrate nitrogen (Nitrosomonas spp.; 0.10 ppm, week 4): 26 PPM
Recovery of Ammonium Nitrogen (Nitrosomonas spp.; 0.10 ppm, week 4): 184 PPM
Concentration of nitrate nitrogen (Nitrosomonas spp.; 0.10 ppm, week 7): 27 PPM
Recovery of Ammonium Nitrogen (Nitrosomonas spp.; 0.10 ppm, week 7): 136 PPM
Concentration of nitrate nitrogen (Nitrosomonas spp.; 0.10 ppm, week 9): 201 PPM
Recovery of Ammonium Nitrogen (Nitrosomonas spp.; 0.10 ppm, week 9): 3 PPM
Concentration of nitrate nitrogen (Nitrosomonas spp.; 0.10 ppm, week 12): 219 PPM
Recovery of Ammonium Nitrogen (Nitrosomonas spp.; 0.10 ppm, week 12): 10 PPM
Concentration of nitrate nitrogen (Nitrosomonas spp.; 0.10 ppm, week 16): 233 PPM
Recovery of Ammonium Nitrogen (Nitrosomonas spp.; 0.10 ppm, week 16): 5 PPM
Recovery of Ammonium Nitrogen (Nitrosomonas spp.; 0.10 ppm, week 20): 0 PPM
Specific inhibition of nitrification through activity against Nitrosomonas spp., in words (Nitrosomonas spp.; 0.1 to 0.5 ppm): appear to specifically inhibit nitrification through activity against Nitrosomonas spp.
Concentration of nitrate nitrogen (Nitrosomonas spp.; 0.25 ppm, week 0): 19 PPM
Recovery of Ammonium Nitrogen (Nitrosomonas spp.; 0.25 ppm, week 0): 193 PPM
Concentration of nitrate nitrogen (Nitrosomonas spp.; 0.25 ppm, week 1): 23 PPM
Recovery of Ammonium Nitrogen (Nitrosomonas spp.; 0.25 ppm, week 1): 176 PPM
Concentration of nitrate nitrogen (Nitrosomonas spp.; 0.25 ppm, week 2): 22 PPM
Recovery of Ammonium Nitrogen (Nitrosomonas spp.; 0.25 ppm, week 2): 189 PPM
Concentration of nitrate nitrogen (Nitrosomonas spp.; 0.25 ppm, week 4): 23 PPM
Recovery of Ammonium Nitrogen (Nitrosomonas spp.; 0.25 ppm, week 4): 185 PPM
Concentration of nitrate nitrogen (Nitrosomonas spp.; 0.25 ppm, week 7): 45 PPM
Recovery of Ammonium Nitrogen (Nitrosomonas spp.; 0.25 ppm, week 7): 167 PPM
Concentration of nitrate nitrogen (Nitrosomonas spp.; 0.25 ppm, week 9): 44 PPM
Recovery of Ammonium Nitrogen (Nitrosomonas spp.; 0.25 ppm, week 9): 171 PPM
Concentration of nitrate nitrogen (Nitrosomonas spp.; 0.25 ppm, week 12): 57 PPM
Recovery of Ammonium Nitrogen (Nitrosomonas spp.; 0.25 ppm, week 12): 168 PPM
Concentration of nitrate nitrogen (Nitrosomonas spp.; 0.25 ppm, week 16): 121 PPM
Recovery of Ammonium Nitrogen (Nitrosomonas spp.; 0.25 ppm, week 16): 111 PPM
Concentration of nitrate nitrogen (Nitrosomonas spp.; 0.25 ppm, week 20): 187 PPM
Recovery of Ammonium Nitrogen (Nitrosomonas spp.; 0.25 ppm, week 20): 4 PPM
Concentration of nitrate nitrogen (Nitrosomonas spp.; 0.50 ppm, week 0): 19 PPM
Recovery of Ammonium Nitrogen (Nitrosomonas spp.; 0.50 ppm, week 0): 194 PPM
Concentration of nitrate nitrogen (Nitrosomonas spp.; 0.50 ppm, week 1): 22 PPM
Recovery of Ammonium Nitrogen (Nitrosomonas spp.; 0.50 ppm, week 1): 167 PPM
Concentration of nitrate nitrogen (Nitrosomonas spp.; 0.50 ppm, week 2): 21 PPM
Recovery of Ammonium Nitrogen (Nitrosomonas spp.; 0.50 ppm, week 2): 185 PPM
Concentration of nitrate nitrogen (Nitrosomonas spp.; 0.50 ppm, week 4): 18 PPM
Recovery of Ammonium Nitrogen (Nitrosomonas spp.; 0.50 ppm, week 4): 170 PPM
Concentration of nitrate nitrogen (Nitrosomonas spp.; 0.50 ppm, week 7): 18 PPM
Recovery of Ammonium Nitrogen (Nitrosomonas spp.; 0.50 ppm, week 7): 197 PPM
Concentration of nitrate nitrogen (Nitrosomonas spp.; 0.50 ppm, week 9): 26 PPM
Recovery of Ammonium Nitrogen (Nitrosomonas spp.; 0.50 ppm, week 9): 196 PPM
Concentration of nitrate nitrogen (Nitrosomonas spp.; 0.50 ppm, week 12): 39 PPM
Recovery of Ammonium Nitrogen (Nitrosomonas spp.; 0.50 ppm, week 12): 191 PPM
Concentration of nitrate nitrogen (Nitrosomonas spp.; 0.50 ppm, week 16): 28 PPM
Recovery of Ammonium Nitrogen (Nitrosomonas spp.; 0.50 ppm, week 16): 205 PPM
Concentration of nitrate nitrogen (Nitrosomonas spp.; 0.50 ppm, week 20): 45 PPM
Recovery of Ammonium Nitrogen (Nitrosomonas spp.; 0.50 ppm, week 20): 176 PPM
Effectiveness as nitrification inhibitor, in words (Nitrosomonas spp.; 20 weeks study): second most effective inhibitor
